Publication PMC11949107, “Polyunsaturated fatty acids and their endocannabinoid-related metabolites activity at human TRPV1 and TRPA1 ion channels expressed in HEK-293 cells” (PeerJ, 2025)
Values joined by “and” are separate entries in the source; they are usually repeats but may differ in a detail not shown here. Identical values can stand only once.

Assays:
human TRPV1 [1] = target: T1, human TRPV1 (Homo sapiens, UniProt Q8NER1); experiment: Pre-incubation with PUFAs or capsazepine, then capsaicin (10 nM) response in HEK-293 TRPV1 cells; type: cell-based
T1 construct: Life Technologies (cells); host or cells: Flp-In T-REx HEK-293
Method: Intracellular calcium [Ca]i levels were assessed using the calcium 5 kit from Molecular Devices (# R8186, Sunnyvale, CA, USA) on a FlexStation 3 Microplate Reader (Molecular Devices, Sunnyvale, CA, USA). […] Probenecid (cat # 50027; Biotium) which helps to prevent expulsion of calcium indicator from the cells was added to a final concentration of 1.25 mM. 90 µL of the dye were loaded into each well of the plate and incubated for 1 h before reading in the FlexStation 3 at 37 °C. Fluorescence was recorded every 2 s (λ excitation = 485 nm, λ emission = 525 nm) for 5 min. After 1 min of baseline recording, 20 µL of the drug, dissolved in HBSS with 1% dimethyl sulfoxide (DMSO) (cat # D2650; Sigma-Aldrich, Melbourne, Australia) was added (final DMSO concentration was 0.1% in well). […]

human TRPV1 [2] = target: T1, human TRPV1; experiment: PMA (phorbol ester) potentiation of TRPV1 responses in HEK-293 TRPV1 cells; type: cell-based; conditions: for [Ca]i response (change in fluorescence), individual replicates: sheet Figure 5(C)
Method: Intracellular calcium [Ca]i levels were assessed using the calcium 5 kit from Molecular Devices (# R8186, Sunnyvale, CA, USA) on a FlexStation 3 Microplate Reader (Molecular Devices, Sunnyvale, CA, USA). […] Probenecid (cat # 50027; Biotium) which helps to prevent expulsion of calcium indicator from the cells was added to a final concentration of 1.25 mM. 90 µL of the dye were loaded into each well of the plate and incubated for 1 h before reading in the FlexStation 3 at 37 °C. Fluorescence was recorded every 2 s (λ excitation = 485 nm, λ emission = 525 nm) for 5 min. After 1 min of baseline recording, 20 µL of the drug, dissolved in HBSS with 1% dimethyl sulfoxide (DMSO) (cat # D2650; Sigma-Aldrich, Melbourne, Australia) was added (final DMSO concentration was 0.1% in well).
We initially determined the effect of PMA, another phorbol ester that is a protein kinase C activator ([Jiang & Fleet, 2012]) on HEK-293 TRPV1 expressing cells.
(A) Response of HEK-293 TRPV1 expressing cells for PMA at various concentration. […] Drugs were added for the duration of the bar; (D) The effects of PUFAs after potentiation of TRPV1 by PMA. […] Changes in [Ca]i are expressed as percentage of the pre-drug baseline, with the response to PMA alone at 5 min subtracted. The black circles represent the response of PUFAs without PMA pretreatment while the pink circles represent the response of PUFAs after PMA potentiation.

HEK-293 EV cells = experiment: Calcium 5 dye [Ca]i assay in HEK-293 empty vector (EV) cells; type: cell-based, human; conditions: 10 µM; HEK-293 EV cells; percentage of predrug baseline
Method in brief: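 Tetracycline at 1 µg ml^−1 was added 4 h before testing; cells were loaded with Calcium 5 dye for 1 h and read at 37 °C, with drug added after 1 min baseline (final 0.1% DMSO). The response was the % change from the 60 s baseline after solvent subtraction, and EC50/Emax came from a three-parameter logistic fit, reported as pEC50.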

human TRPV1 [3] = target: T1, human TRPV1; experiment: Calcium 5 dye [Ca]i assay in HEK-293 Flp-In T-REx cells expressing TRPV1 (agonist response); type: cell-based; conditions: for Change in Ca5 fluorescence, individual experiments (CRC raw data): TRPV1 cells
Method in brief: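 Tetracycline-induced (1 µg ml^−1, 4 h) HEK-293 T-REx cells loaded with Calcium 5 dye plus 1.25 mM probenecid for 1 h; agonist added after 1 min baseline (0.1% DMSO final), fluorescence (485/525 nm) read every 2 s for 5 min at 37 °C. Response as % change from baseline, solvent-subtracted; EC50/Emax from three-parameter logistic fit, given as pEC50.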

T1 sequence (Q8NER1 whole entry): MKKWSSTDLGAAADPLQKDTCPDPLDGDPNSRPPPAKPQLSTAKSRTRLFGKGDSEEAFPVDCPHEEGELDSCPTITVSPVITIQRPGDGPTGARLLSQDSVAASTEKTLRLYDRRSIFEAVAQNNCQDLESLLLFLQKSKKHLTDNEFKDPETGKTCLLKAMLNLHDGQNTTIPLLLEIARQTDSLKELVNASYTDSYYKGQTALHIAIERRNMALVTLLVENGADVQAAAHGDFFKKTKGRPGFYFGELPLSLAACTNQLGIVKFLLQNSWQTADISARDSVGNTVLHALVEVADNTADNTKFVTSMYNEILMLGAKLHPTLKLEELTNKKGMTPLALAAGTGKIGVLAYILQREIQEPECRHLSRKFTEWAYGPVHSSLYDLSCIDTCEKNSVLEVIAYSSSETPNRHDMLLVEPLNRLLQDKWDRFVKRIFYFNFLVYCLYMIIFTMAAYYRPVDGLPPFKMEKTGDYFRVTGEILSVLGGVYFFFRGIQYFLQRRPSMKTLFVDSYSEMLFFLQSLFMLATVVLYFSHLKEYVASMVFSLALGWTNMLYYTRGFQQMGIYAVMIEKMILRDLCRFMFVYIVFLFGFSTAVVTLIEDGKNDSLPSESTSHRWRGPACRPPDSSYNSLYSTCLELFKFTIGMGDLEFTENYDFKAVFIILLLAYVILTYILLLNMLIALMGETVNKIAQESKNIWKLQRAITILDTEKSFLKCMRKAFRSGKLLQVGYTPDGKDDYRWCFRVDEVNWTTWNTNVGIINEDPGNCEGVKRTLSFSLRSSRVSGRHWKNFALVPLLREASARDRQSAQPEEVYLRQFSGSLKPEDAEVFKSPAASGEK

SMILES: Oc1cc2c(cc1O)CN(C(=S)NCCc1ccc(Cl)cc1)CCC2 [capsazepine, reference compound]
- Effect of pre-treatment on the capsaicin response (human TRPV1 [1]; 10 µM, 5 min exposure, then capsaicin 10 nM): prevented
- Post-capsaicin: response to subsequent capsaicin addition, individual experiments (human TRPV1 [1]; capsaicin 10 nM after 5 min drug 10 µM, TRPV1 cells, listed as CAPZ): 10.3375 and -4.09 and 24.8571 and 12.9593 and -2.666 and 6.069
- Pre-capsaicin: response to first drug, individual experiments (human TRPV1 [1]; drug 10 µM for 5 min, TRPV1 cells, listed as CAPZ): 25.3514 and 3.867 and 12.8382 and 10.4656 and 4.742 and 37.2822

SMILES: COc1cc(CNC(=O)CCCC/C=C/C(C)C)ccc1O [Capsaicin]
- [Ca]i response (change in fluorescence), individual replicates (human TRPV1 [2]; Capsaicin alone, concentration -5 (log)): 595.541 and 626.277 and 602.254 and 594.454 and 590.074 and 541.046 and 516.667
- [Ca]i response (change in fluorescence), individual replicates (human TRPV1 [2]; Capsaicin alone, concentration -6 (log)): 552.521 and 565.654 and 354.62 and 545.98 and 564.249 and 584.634 and 580.153
- [Ca]i response (change in fluorescence), individual replicates (human TRPV1 [2]; Capsaicin alone, concentration -7.52288 (log)): 532.091 and 453.931 and 457.847 and 272.568
- [Ca]i response (change in fluorescence), individual replicates (human TRPV1 [2]; Capsaicin alone, concentration -8 (log)): 105.919 and 177.189 and 79.3195 and 30.3097 and 60.6584 and 319.686 and 144.106
- [Ca]i response (change in fluorescence), individual replicates (human TRPV1 [2]; Capsaicin alone, concentration -8.52288 (log)): 2.139 and 1.734 and 6.239 and 49.459 and 10.1781 and -5.201 and 2.9246 and 2.502 and 16.6604 and 25.7998 and 147.975 and 180.247
- [Ca]i response (change in fluorescence), individual replicates (human TRPV1 [2]; Capsaicin alone, concentration -9 (log)): 2.491 and -0.4612 and 4.215 and 6.618 and 6.288 and 4.839 and 3.5734 and 0.9298 and 2.514 and -2.854 and 3.184 and 5.152
- [Ca]i response (change in fluorescence), individual replicates (human TRPV1 [2]; Capsaicin alone, concentration -10 (log)): -1.109 and 5.021 and -0.4125 and -2.624 and 0.2107
- [Ca]i response (change in fluorescence), individual replicates (human TRPV1 [2]; Capsaicin post-PMA, concentration -5 (log)): 496.984 and 417.588
- [Ca]i response (change in fluorescence), individual replicates (human TRPV1 [2]; Capsaicin post-PMA, concentration -6 (log)): 544.156 and 380.208 and 494.359 and 527.721 and 402.607 and 284.086
- [Ca]i response (change in fluorescence), individual replicates (human TRPV1 [2]; Capsaicin post-PMA, concentration -7.52288 (log)): 396.653 and 394.172 and 495.495 and 292.964
- [Ca]i response (change in fluorescence), individual replicates (human TRPV1 [2]; Capsaicin post-PMA, concentration -8 (log)): 292.695 and 167.258 and 234.279 and 203.284 and 320.763 and 311.597 and 228.909
- [Ca]i response (change in fluorescence), individual replicates (human TRPV1 [2]; Capsaicin post-PMA, concentration -8.52288 (log)): 137.626 and 123.803 and 108.674 and 62.3148 and 135.616 and 311.329 and 67.1431 and 138.197 and 73.5753 and 51.0772
- [Ca]i response (change in fluorescence), individual replicates (human TRPV1 [2]; Capsaicin post-PMA, concentration -9 (log)): 41.3533 and 39.7921 and 40.9396 and 31.7003 and 53.9609 and 52.809 and 35.9713 and 49.984 and 39.816 and 29.7359 and 17.3567
- [Ca]i response (change in fluorescence), individual replicates (human TRPV1 [2]; Capsaicin post-PMA, concentration -10 (log)): 44.473 and 19.9944 and 42.7227 and 36.7683 and 31.3318 and 10.3982
- HBSS post Capsaicin, individual experiments (human TRPV1 [2]; HBSS after capsaicin 10 nM): 14.4552 and 24.0374 and 16.1823
- TRPV1 response after exposure to PMA (human TRPV1 [2]; PMA 100 nM, 5 min pretreatment): amplified
- Drugs post-PMA, individual experiments (human TRPV1 [2]; capsaicin 10 nM after PMA 100 nM for 5 min, response to PMA alone subtracted): 292.695 and 167.258 and 234.279 and 203.284 and 320.763
- Capsaicin response without PMA, individual experiments (human TRPV1 [2]; capsaicin 10 nM alone): 226.255 and 133.384 and 132.765
- Drugs alone, individual experiments (human TRPV1 [2]; capsaicin 10 nM without PMA pretreatment): 79.3195 and 30.3097 and 60.6584
- Change of Ca5 fluorescence, Mean ± SEM, EV (10 µM) (HEK-293 EV cells): 12 ± 2%
- Elevation of [Ca]i in HEK-293 TRPV1 cells compared with HEK-293 EV cells (human TRPV1 [3]; 10 µM): significantly greater
- Change of Ca5 fluorescence, Mean ± SEM, TRPV1 (10 µM) (human TRPV1 [3]; 10 µM, HEK-293 TRPV1 cells, percentage of predrug baseline): 350 ± 33 %
- Emax at 30 µM (human TRPV1 [3]; HEK293, read-out: Emax ± SEM % TRPV1 (30 µM)): 340 ± 19%
- TRPV1 response, Mean± SEM (N) (human TRPV1 [3]; highest concentration of capsaicin (10 µM)): 337 ± 56 (21)
- Change in Ca5 fluorescence, individual experiments (CRC raw data) (human TRPV1 [3]; log concentration -5 (M)): 470.33 and 172.951 and 473.364 and 509.446 and 171.926 and 427.551 and 233.547 and 218.906 and 339.94 and 178.11 and 253.39 and 197.967 and 463.085 and 202.235 and 472.577 and 462.537 and 153.101 and 535.708 and 529.643 and 524.333
- Change in Ca5 fluorescence, individual experiments (CRC raw data) (human TRPV1 [3]; log concentration -6 (M)): 464.868 and 165.225 and 461.65 and 520.53 and 312.706 and 3.214 and 3.201 and 3.988 and 340.169 and 187.118 and 486.026 and 246.165 and 485.213
- Change in Ca5 fluorescence, individual experiments (CRC raw data) (human TRPV1 [3]; log concentration -7 (M)): 449.588 and 119.691 and 406.342 and 2.432 and 332.379 and 480.521 and 322.808 and 86.6522 and 310.081 and 147.599 and 431.922 and 467.245
- Change in Ca5 fluorescence, individual experiments (CRC raw data) (human TRPV1 [3]; log concentration -7.52288 (M)): 356.845 and 111.895 and 323.852 and 3.161 and 274.896 and 259.762 and 73.7365 and 34.2854 and 273.106 and 132.986 and 393.207 and 420.023 and 372.386
- Change in Ca5 fluorescence, individual experiments (CRC raw data) (human TRPV1 [3]; log concentration -8 (M)): 5.385 and 96.7773 and 164.958 and 3.572 and 5.951 and 47.2327 and 7.175 and 1.822 and 309.776 and 125.652 and 333.972 and 270.42 and 149.94
- Change in Ca5 fluorescence, individual experiments (CRC raw data) (human TRPV1 [3]; log concentration -8.52288 (M)): 11.2452 and 61.0751 and 5.8468 and 39.7141 and 6.931 and 3.397 and 5.378 and 0.9947 and 335.917 and 103.111 and 65.1245 and 4.361 and 1.4546
- Change in Ca5 fluorescence, individual experiments (CRC raw data) (human TRPV1 [3]; log concentration -9 (M)): 6.236 and 19.5627 and 8.465 and 57.6325 and 2.89 and 1.796 and 10.3317 and 2.025 and 308.34 and 50.3171 and 51.1654 and 4.4283 and 2.369 and 122.651 and 6.769 and 5.267
- Change in Ca5 fluorescence (human TRPV1 [3]; maximal effective concentration, HEK-293 TRPV1 cells, dye saturation control): 435 ± 15%
